{
  "source": "patent US20210023089A1",
  "about": "“Compositions Useful for Treating Herpes Simplex Keratitis, and Methods Using Same” (priority 2013, published 2021)",
  "key": {"HSV-1 [1]": {"tested_on": "HSV-1", "assay": "qPCR of viral genome replication in HSV-1 infected HCE cells", "type": "cell-based, HSV-1 (KOS strain)", "conditions": "MOI 0.1, inhibitor 10 μM", "experimental": "(§1) All cells were cultured at 37° C. and 5% CO2, and supplemented with 100 U/ml penicillin and 100 μg/ml streptomycin. Human corneal epithelial cells immortalized with hTERT (hTCEpi; Bahassi et al., 2008, Oncogene 27:3977-3985) were grown in complete KGM-2 medium. Human corneal epithelial cells immortalized with SV40 large T antigen (HCE; Araski-Sasaki et al., 1995, Invest. Ophthalmol. Visual Sci. 36:614-621), as well as African green monkey kidney fibroblasts (CV-1; Jensen et al., 1964, Proc. Natl. Acad. Sci. USA 52:53-59), were grown in DMEM medium supplemented with 10% FBS. KOS strain (Smith, Proc. Soc. Exp. Biol. Med. Soc. Exp. Biol. Med. 115:814-816) of HSV-1 was used in all infections. All viral stocks were titered on CV-1 monolayers.\nTetracyline-inducible Chk2 knockdown cell line was derived by lentivirally transducing HCE cells with a construct harboring shRNA sequence against the Chk2 transcript. The Chk2 shRNA sequence was acquired from Sigma (NM_007194.2-129951c1) and targets the following region: 5′-[…]-3′ (SEQ ID NO:1). Lentiviral particles were produced in 293T packaging cells (Dull et al., 1998, J. Virol. 72:8463-8471). […]\nTotal DNA from infected cells and corneas was isolated using the DNeasy Blood & Tissue Kit (QIAGEN, Hilden, Germany). Real time quantitative PCR was performed with SYBR Green (Bio-Rad, Hercules, Calif.). […]"}, "HSV-1 [2]": {"tested_on": "HSV-1", "assay": "Plaque assay of supernatants from HSV-1 infected HCE cells", "type": "cell-based, HSV-1 (KOS strain)", "conditions": "MOI 0.1, 10 μM, vs controls", "experimental": "as §1\nCells were grown in 6-well plates and used in experiments at […] confluence. Drug treatments were administered 45 min prior to infection and continued for the entire duration of each experiment. Unless indicated otherwise, Chk2 inhibitor II (>98% purity by HPLC) was used at 10 μM final concentration, and phosphonoacetic acid (PAA) at 400 μg/ml (both from Sigma-Aldrich, St. Louis, Mo.). Chk2 inhibitor II was dissolved in DMSO such that the final concentration of DMSO in both Chk2 inhibitor II and mock treatment was 0.1%. […]"}, "hTCEpi cells": {"tested_on": "hTCEpi cells", "assay": "Colony survival assay", "type": "cell-based, human", "experimental": "hTCEpi cells were treated with KU-55933 (10 μM) or DMSO for 24 hours, trypsinized, counted, and plated into 6-cm dishes at 50 cells/dish. After 2 weeks, colonies were fixed with 10% buffered formalin, stained with 0.01% crystal violet, rinsed, and counted."}},
  "data": [
    {"smiles": "NC(=O)c1ccc2[nH]c(-c3ccc(Oc4ccc(Cl)cc4)cc3)nc2c1", "note": "[Chk2 inhibitor II, 2-(4-(4-chlorophenoxy)phenyl)-1H-benzimidazole-5-carboxamide]", "values": [
      {"measurement": "viral genome replication (qPCR)", "setting": "HSV-1 [1]", "value": "profoundly reduced"},
      {"measurement": "generation of infectious viral particles (plaque assay)", "setting": "HSV-1 [2]", "value": "reduction"}
    ]},
    {"smiles": "O=c1cc(-c2cccc3c2Sc2ccccc2S3)oc(N2CCOCC2)c1", "note": "[KU-55933, 2-(morpholin-4-yl)-6-(thianthren-1-yl)-pyran-4-one]", "values": [
      {"measurement": "survival and proliferation of cultured cells after treatment", "setting": "hTCEpi cells; 2 full weeks following a 24-hour treatment", "value": "able to survive and proliferate well"},
      {"measurement": "clonal survival compared to mock-treated controls", "setting": "hTCEpi cells; hTCEpi cells, KU-55933 10 μM continuously for 24 hours", "value": "roughly 70%"}
    ]}
  ]
}
